# Measurements from patent publication US9670142B2, “1,3-diaminocyclopentane carboxamide derivatives” (Merck Patent GmbH, priority 2013, dated 2017).
# Molecular target: human fatty acid synthase FASN (Homo sapiens (Human), UniProt P49327)
# Experiment: Biochemical activity testing of human fatty acid synthase FASN (NADPH fluorescence intensity enzyme assay)
# Conditions: human recombinant full-length fatty acid synthase
# Source text: Biochemical activity testing of human fatty acid synthase FASN
# Fatty acid synthase FASN is a multifunctional enzyme with seven catalytic activities thereby synthesising long chain fatty acids especially palmitoyl-CoA in the presence of co-factor NADPH starting from the substrates acetyl-CoA and malonyl-CoA. The reductive synthesis is realized by the oxidation of NADPH to NADP. Since NADPH has a high fluorescence intensity quantum yield compared to NADP with excitation at 340 nm and emission at 460 nm, the reaction can be monitored via the decrease in fluorescence intensity. The biochemical FASN activity testing was performed as 384 well two-time-point kinetic fluorescence intensity assay format in Greiner low volume medium binding 384-well black microtiter plates in a total assay volume of 8 μl and was used for high throughput screen. In each well 3 μl 40 nM human recombinant full-length fatty acid synthase (produced in-house in SF9 cells) were dispensed in the following assay buffer: 50 mM potassium phosphate buffer pH 7.0, 0.005% (w/v) BSA, 2 mM Glutathione, 0.02% Tween-20. Then 2 μl of 200 μM NADPH in assay buffer were added, followed by the addition of the test compounds in 10 dilution concentrations starting with 30 μM (final concentration) to get a final DMSO content of 1% (v/v). The mixture was incubated for at least 15 min at room temperature. After the pre-incubation the enzymatic reaction was started by the addition of 2 μl substrate solution (80 μM acetyl-CoA, 240 μM malonyl-CoA). A first fluorescence intensity measurement (time point one) was performed with an Envision multimode reader (Perkin Elmer LAS Germany GmbH) at excitation wavelength 340 nm (lamp mode) and emission wavelength 460 nm. The reaction was incubated for 30 minutes at room temperature. After this the fluorescence intensity was measured again in the Envision using the same parameters as described above (second time point measurement). The data were analysed by subtracting the first time point measurement value from the second time point measurement value (after the enzymatic reaction). The differences of the emission signals were determined. These reflect directly the conversion rate of NADPH. The full value used was the inhibitor-free reaction. A pharmacological zero value was used like GSK837149A (Sigma-Aldrich) in a final concentration of 5-10 μM. The inhibitory values (IC50) were determined using either the program Symyx Assay Explorer® or Condosseo® from GeneData.
# Sequence of human fatty acid synthase FASN (P49327 whole entry): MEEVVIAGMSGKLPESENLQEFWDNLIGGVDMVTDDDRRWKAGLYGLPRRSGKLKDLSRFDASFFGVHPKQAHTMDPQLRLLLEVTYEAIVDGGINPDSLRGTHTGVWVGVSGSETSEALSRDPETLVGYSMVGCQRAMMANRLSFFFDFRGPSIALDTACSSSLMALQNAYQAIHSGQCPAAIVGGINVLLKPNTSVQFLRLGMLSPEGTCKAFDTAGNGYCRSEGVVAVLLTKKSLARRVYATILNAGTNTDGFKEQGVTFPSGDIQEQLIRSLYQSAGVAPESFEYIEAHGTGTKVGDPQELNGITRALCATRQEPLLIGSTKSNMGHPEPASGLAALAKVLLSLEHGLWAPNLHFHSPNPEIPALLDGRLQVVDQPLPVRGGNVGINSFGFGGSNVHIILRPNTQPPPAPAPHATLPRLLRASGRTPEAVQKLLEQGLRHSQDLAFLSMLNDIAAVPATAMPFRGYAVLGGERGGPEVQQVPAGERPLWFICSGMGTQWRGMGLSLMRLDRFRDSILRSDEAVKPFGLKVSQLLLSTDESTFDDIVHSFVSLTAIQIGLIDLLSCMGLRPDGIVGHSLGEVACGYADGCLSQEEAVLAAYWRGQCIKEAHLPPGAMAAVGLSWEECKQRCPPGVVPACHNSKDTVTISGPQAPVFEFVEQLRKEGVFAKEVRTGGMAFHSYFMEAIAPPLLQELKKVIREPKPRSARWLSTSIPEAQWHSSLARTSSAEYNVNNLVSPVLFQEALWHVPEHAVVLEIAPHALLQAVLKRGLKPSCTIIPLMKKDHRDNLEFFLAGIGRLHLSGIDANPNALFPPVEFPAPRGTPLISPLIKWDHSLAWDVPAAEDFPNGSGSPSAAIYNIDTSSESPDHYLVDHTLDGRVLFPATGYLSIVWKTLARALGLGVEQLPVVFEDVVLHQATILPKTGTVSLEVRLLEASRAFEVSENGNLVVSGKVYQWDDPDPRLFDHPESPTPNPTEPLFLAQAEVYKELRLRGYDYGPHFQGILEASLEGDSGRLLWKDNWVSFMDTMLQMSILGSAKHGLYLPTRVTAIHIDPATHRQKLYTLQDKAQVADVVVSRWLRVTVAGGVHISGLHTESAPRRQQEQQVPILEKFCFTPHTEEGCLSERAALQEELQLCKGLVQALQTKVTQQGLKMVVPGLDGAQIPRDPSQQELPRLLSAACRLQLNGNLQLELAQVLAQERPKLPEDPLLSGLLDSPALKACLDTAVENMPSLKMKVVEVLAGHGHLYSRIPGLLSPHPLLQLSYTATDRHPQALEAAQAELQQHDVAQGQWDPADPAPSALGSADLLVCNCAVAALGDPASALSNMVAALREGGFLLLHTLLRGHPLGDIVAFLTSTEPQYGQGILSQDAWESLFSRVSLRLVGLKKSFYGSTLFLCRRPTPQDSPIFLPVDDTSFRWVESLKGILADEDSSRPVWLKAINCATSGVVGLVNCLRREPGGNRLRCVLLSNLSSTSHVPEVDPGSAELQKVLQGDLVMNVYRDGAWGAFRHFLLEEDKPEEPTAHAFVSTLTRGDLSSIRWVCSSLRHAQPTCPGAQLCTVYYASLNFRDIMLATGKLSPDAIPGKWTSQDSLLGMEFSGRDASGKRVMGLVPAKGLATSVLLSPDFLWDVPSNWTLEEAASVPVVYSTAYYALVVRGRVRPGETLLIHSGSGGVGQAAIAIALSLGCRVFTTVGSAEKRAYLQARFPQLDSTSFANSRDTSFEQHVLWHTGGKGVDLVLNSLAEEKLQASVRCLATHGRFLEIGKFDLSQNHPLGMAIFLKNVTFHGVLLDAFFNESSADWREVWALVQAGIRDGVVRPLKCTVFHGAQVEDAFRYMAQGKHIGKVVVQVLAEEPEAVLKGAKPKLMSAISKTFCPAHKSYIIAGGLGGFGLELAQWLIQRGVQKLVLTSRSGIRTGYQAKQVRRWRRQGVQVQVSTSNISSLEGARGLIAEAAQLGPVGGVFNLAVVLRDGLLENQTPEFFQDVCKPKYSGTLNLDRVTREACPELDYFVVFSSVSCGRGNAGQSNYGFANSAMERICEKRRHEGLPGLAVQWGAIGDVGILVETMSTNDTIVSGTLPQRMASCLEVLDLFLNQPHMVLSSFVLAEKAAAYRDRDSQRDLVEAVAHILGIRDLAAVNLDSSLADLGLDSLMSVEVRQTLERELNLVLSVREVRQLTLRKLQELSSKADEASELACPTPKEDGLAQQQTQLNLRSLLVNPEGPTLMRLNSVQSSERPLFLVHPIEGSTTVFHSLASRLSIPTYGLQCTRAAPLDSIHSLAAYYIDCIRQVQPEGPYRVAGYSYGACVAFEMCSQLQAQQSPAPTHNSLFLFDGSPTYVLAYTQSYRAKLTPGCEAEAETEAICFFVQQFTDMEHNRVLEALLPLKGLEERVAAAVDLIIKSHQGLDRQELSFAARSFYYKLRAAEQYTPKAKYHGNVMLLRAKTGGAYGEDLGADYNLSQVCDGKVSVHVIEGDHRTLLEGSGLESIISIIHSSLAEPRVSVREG
row,Compound,IC50
1,"CCC(=O)N[C@H]1CC[C@@H](N(C)C(=O)c2ccc(-c3ccc4[nH]nc(C)c4c3)cn2)C1 [Compound A105, 5-(3-methyl-1H-indazol-5-yl)-pyridine-2-carboxylic acid methyl-((1R,3S)-3-propionylamino-cyclopentyl)-amide]",< 300 nM
2,"CCC(=O)N[C@H]1CC[C@@H](N(C)C(=O)c2ccc(-c3ccc4c(ccn4C)c3)c(C)c2)C1 [Compound A114, 3,N-dimethyl-4-(1-methyl-1H-indol-5-yl)-N-((1R,3S)-3-propionylamino-cyclopentyl)-benzamide]",< 300 nM
3,"CCC(=O)N[C@H]1CC[C@@H](N(C)C(=O)c2cnc(-c3ccc4[nH]ccc4c3F)c(F)c2)C1 [Compound A143, 5-fluoro-6-(4-fluoro-1H-indol-5-yl)-N-methyl-N-((1R,3S)-3-propionylamino-cyclopentyl)-nicotinamide]",< 300 nM
4,"CCC(=O)N[C@H]1CC[C@@H](N(C)C(=O)c2ccc(-c3ccc4ncsc4c3)cc2)C1 [Compound A59, 4-benzothiazol-6-yl-N-methyl-N-((1R,3S)-3-propionylamino-cyclopentyl)-benzamide]",< 300 nM
5,"CCC(=O)N[C@H]1CC[C@@H](N(C)C(=O)c2ccc(-c3ccc4[nH]ccc4c3C)nn2)C1 [Compound A150, 6-(4-methyl-1H-indol-5-yl)-pyridazine-3-carboxylic acid methyl-((1R,3S)-3-propionylamino-cyclopentyl)-amide]",< 300 nM
6,"CCC(=O)N[C@H]1CC[C@@H](N(C)C(=O)c2ccc(-c3cc(F)c4[nH]cc(C(N)=O)c4c3)c(F)c2)C1 [Compound A172, 7-fluoro-5-{2-fluoro-4-[methyl-((1R,3S)-3-propionylamino-cyclopentyl)-carbamoyl]-phenyl}-1H-indole-3-carboxylic acid amide]",300 to 3000 nM
7,"CCC(=O)N[C@H]1CC[C@@H](N(C)C(=O)c2ccc(-c3ccc4[nH]cc(CN)c4c3)cc2)C1 [Compound A130, 4-(3-aminomethyl-1H-indol-5-yl)-N-methyl-N-((1R,3S)-3-propionylamino-cyclopentyl)-benzamide]",< 300 nM
8,"CCC(=O)N[C@H]1CC[C@@H](N(C)C(=O)c2ccc(-c3nc4ccccc4[nH]3)cc2)C1 [Compound A7, 4-(1H-benzimidazol-2-yl)-N-methyl-N-((1R,3S)-3-propionylamino-cyclopentyl)-benzamide]",< 300 nM
9,"CCC(=O)N[C@H]1CC[C@@H](N(C)C(=O)c2ccc(-c3cc(C)c4[nH]ncc4c3)cc2)C1 [Compound A107, N-methyl-4-(7-methyl-1H-indazol-5-yl)-N-((1R,3S)-3-propionylamino-cyclopentyl)-benzamide]",< 300 nM
10,"CCC(=O)N[C@H]1CC[C@@H](N(C)C(=O)c2ccc(-c3ccc4[nH]ccc4c3)nc2)C1 [Compound A117, 6-(1H-indol-5-yl)-N-methyl-N-((1R,3S)-3-propionylamino-cyclopentyl)-nicotinamide]",< 300 nM
11,"CC(=O)N[C@@H](C)C(=O)N[C@H]1CC[C@@H](N(C)C(=O)c2ccc(-c3nc4ccccc4o3)cc2)C1 [Compound A47, N-[(1R,3S)-3-((S)-2-acetylamino-propionylamino)-cyclopentyl]-4-benzoxazol-2-yl-N-methyl-benzamide]",3000 to 50000 nM
12,"CCC(=O)N[C@H]1CC[C@@H](N(C)C(=O)c2cnc(-c3cc(F)c4[nH]ccc4c3)c(F)c2)C1 [Compound A142, 5-fluoro-6-(7-fluoro-1H-indol-5-yl)-N-methyl-N-((1R,3S)-3-propionylamino-cyclopentyl)-nicotinamide]",300 to 3000 nM
13,"CCC(=O)N[C@H]1CC[C@@H](N(C)C(=O)c2cnc(-c3ccc4[nH]ccc4c3)nc2)C1 [Compound A139, 2-(1H-indol-5-yl)-pyrimidine-5-carboxylic acid methyl-((1R,3S)-3-propionylamino-cyclopentyl)-amide]",< 300 nM
14,"CCC(=O)N[C@H]1CC[C@@H](N(C)C(=O)c2ccc(-c3ccc(C)cc3C)cc2)C1 [Compound A90, 2′,4′-dimethyl-biphenyl-4-carboxylic acid methyl-((1R,3S)-3-propionylamino-cyclopentyl)-amide]",< 300 nM
15,"CCC(=O)N[C@H]1CC[C@@H](N(C)C(=O)c2ccc(-c3ncc[nH]3)cc2)C1 [Compound A11, 4-(1H-imidazol-2-yl)-N-methyl-N-((1R,3S)-3-propionylamino-cyclopentyl)-benzamide]",3000 to 50000 nM
16,"CCC(=O)N[C@H]1CC[C@@H](N(C)C(=O)c2ccc(-c3ccc(C(=O)NC)cc3)cc2)C1 [Compound A78, biphenyl-4,4′-dicarboxylic acid 4′-methylamide 4-[methyl-((1R,3S)-3-propionylamino-cyclopentyl)-amide]]",< 300 nM
17,"CCC(=O)N[C@H]1CC[C@@H](N(C)C(=O)c2ccc(-c3nc4ccc(Cl)cc4o3)cc2)C1 [Compound A128, 4-(6-chloro-benzoxazol-2-yl)-N-methyl-N-((1R,3S)-3-propionylamino-cyclopentyl)-benzamide]",< 300 nM
18,"CCC(=O)N[C@H]1CC[C@@H](N(C)C(=O)c2ccc(-c3ccc4c(ccn4C)c3)cn2)C1 [Compound A110, 5-(1-methyl-1H-indol-5-yl)-pyridine-2-carboxylic acid methyl-((1R,3S)-3-propionylamino-cyclopentyl)-amide]",< 300 nM
19,"CCC(=O)N[C@H]1CC[C@@H](N(C)C(=O)c2ccc(-c3ccc(-n4cccn4)cc3)cc2)C1 [Compound A68, 4′-pyrazol-1-yl-biphenyl-4-carboxylic acid methyl-((1R,3S)-3-propionylamino-cyclopentyl)-amide]",< 300 nM
20,"CC(=O)N[C@@H](C(=O)N[C@H]1CC[C@@H](N(C)C(=O)c2ccc(-c3nc4ccccc4o3)cc2)C1)C(C)C [Compound A42, N-[(1R,3S)-3-((R)-2-acetylamino-3-methyl-butyrylamino)-cyclopentyl]-4-benzoxazol-2-yl-N-methyl-benzamide]",3000 to 50000 nM
21,"COCC(=O)N[C@H]1CC[C@@H](N(C)C(=O)c2ccc(-c3nc4ccccc4o3)cc2)C1 [Compound A34, 4-benzoxazol-2-yl-N-[(1R,3S)-3-(2-methoxy-acetylamino)-cyclopentyl]-N-methyl-benzamide]",< 300 nM
22,"CCC(=O)N[C@H]1CC[C@@H](N(C)C(=O)c2ccc(-c3ccc4[nH]nnc4c3)cc2)C1 [Compound A91, 4-(1H-benzotriazol-5-yl)-N-methyl-N-((1R,3S)-3-propionylamino-cyclopentyl)-benzamide]",< 300 nM
23,"CCC(=O)N[C@H]1CC[C@@H](N(C)C(=O)c2ccc(-c3ccc4[nH]ccc4c3F)c(F)c2)C1 [Compound A151, 3-fluoro-4-(4-fluoro-1H-indol-5-yl)-N-methyl-N-((1R,3S)-3-propionylamino-cyclopentyl)-benzamide]",< 300 nM
24,"CCC(=O)N[C@H]1CC[C@@H](N(C)C(=O)c2ccc(-c3ccc4[nH]ccc4c3)c(C)c2)C1 [Compound A101, 4-(1H-indol-5-yl)-3,N-dimethyl-N-((1R,3S)-3-propionylamino-cyclopentyl)-benzamide]",< 300 nM
25,"CN(C(=O)c1ccc(-c2nc3ccc(Cl)cc3o2)nc1)[C@@H]1CC[C@H](NC(=O)[C@@H]2CCCO2)C1 [Compound A154, 6-(6-chloro-benzoxazol-2-yl)-N-methyl-N-{(1R,3S)-3-[((S)-tetrahydro-furan-2-carbonyl)-amino]-cyclopentyl}-nicotinamide]",< 300 nM
26,"CCC(=O)N[C@@H]1CC[C@@H](N(C)C(=O)c2ccc(-c3nc4ccccc4o3)cc2)C1 [Compound A165, 4-benzoxazol-2-yl-N-methyl-N-((1R,3R)-3-propionylamino-cyclopentyl)-benzamide]",3000 to 50000 nM
27,"CCC(=O)N[C@H]1CC[C@@H](N(C)C(=O)c2ccc(-c3ccc(OC)c(OC)c3)cc2)C1 [Compound A56, 3′,4′-dimethoxy-biphenyl-4-carboxylic acid methyl-((1R,3S)-3-propionylamino-cyclopentyl)-amide]",< 300 nM
28,"CCC(=O)N[C@H]1CC[C@@H](N(C)C(=O)c2ccc(-c3nc4ccc(Cl)cc4o3)nc2)C1 [Compound A153, 6-(6-chloro-benzoxazol-2-yl)-N-methyl-N-((1R,3S)-3-propionylamino-cyclopentyl)-nicotinamide]",< 300 nM
29,"CC(C)CCC(=O)N[C@H]1CC[C@@H](N(C)C(=O)c2ccc(-c3nc4ccccc4o3)cc2)C1 [Compound A19, 4-benzoxazol-2-yl-N-methyl-N-[(1R,3S)-3-(4-methyl-pentanoylamino)-cyclopentyl]-benzamide]",< 300 nM
30,"CCC(=O)N[C@H]1CC[C@@H](N(C)C(=O)c2ccc(-c3ccc(F)cc3F)cc2)C1 [Compound A83, 2′,4′-difluoro-biphenyl-4-carboxylic acid methyl-((1R,3S)-3-propionylamino-cyclopentyl)-amide]",< 300 nM
